According to patent US7786141B2 (Vertex Pharmaceuticals Incorporated, priority 2004, dated 2010):
Like-named read-outs stand apart in the source and are kept apart here.

Tests used:
M1 muscarinic receptor = target: T1, M1 muscarinic receptor (Homo sapiens, UniProt P11229); assay: Functional mobilization of intracellular calcium (FLIPR) in M1-CHO cells; assay type: cell-based
T1 construct: expressed in transfected cells; host or cells: CHO (M1-CHO)
T1 sequence (P11229 1-460): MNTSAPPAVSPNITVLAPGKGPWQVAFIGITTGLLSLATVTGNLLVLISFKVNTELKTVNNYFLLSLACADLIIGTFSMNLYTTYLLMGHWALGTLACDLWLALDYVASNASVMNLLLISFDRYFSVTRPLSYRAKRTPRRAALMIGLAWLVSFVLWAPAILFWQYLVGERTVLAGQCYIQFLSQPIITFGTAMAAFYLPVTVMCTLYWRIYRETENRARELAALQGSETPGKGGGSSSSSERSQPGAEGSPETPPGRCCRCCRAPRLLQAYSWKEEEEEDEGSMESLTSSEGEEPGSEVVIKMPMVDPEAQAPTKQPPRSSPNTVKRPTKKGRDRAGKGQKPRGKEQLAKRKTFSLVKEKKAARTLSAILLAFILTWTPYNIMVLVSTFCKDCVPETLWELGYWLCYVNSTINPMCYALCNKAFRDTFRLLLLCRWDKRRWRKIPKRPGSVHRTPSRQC
Outline: (§1)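 Intracellular calcium rise is measured by FLIPR fluorescence over 60 sec in CHO cells carrying human M1 or M4 receptors. Compounds are tested alone as agonists, or pre-incubated 15 min (or co-applied) ahead of carbachol at its EC80 to detect inhibition.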

M4 muscarinic receptor = target: T2, M4 muscarinic receptor (Homo sapiens, UniProt P08173); assay: Functional mobilization of intracellular calcium (FLIPR) in M4-CHO cells; assay type: cell-based
T2 construct: expressed in transfected cells; host or cells: CHO (M4-CHO)
T2 sequence (P08173 1-479): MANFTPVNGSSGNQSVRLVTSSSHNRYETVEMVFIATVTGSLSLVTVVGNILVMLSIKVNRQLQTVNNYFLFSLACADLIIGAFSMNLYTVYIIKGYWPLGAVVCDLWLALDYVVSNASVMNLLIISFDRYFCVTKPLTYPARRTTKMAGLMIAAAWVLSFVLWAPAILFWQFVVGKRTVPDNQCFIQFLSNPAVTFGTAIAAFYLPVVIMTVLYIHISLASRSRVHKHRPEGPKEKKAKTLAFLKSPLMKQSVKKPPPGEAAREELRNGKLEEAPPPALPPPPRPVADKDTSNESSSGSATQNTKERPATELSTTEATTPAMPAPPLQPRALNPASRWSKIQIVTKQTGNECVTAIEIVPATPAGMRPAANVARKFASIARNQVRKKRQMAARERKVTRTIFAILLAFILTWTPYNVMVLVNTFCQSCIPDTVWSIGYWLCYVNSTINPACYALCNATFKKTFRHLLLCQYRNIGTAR
Outline: as §1

[1] = Table 4, 100% efficacy is the maximum response obtained with the Carbachol control
[2] = Table 4, modulating M1 receptor
[3] = Table 4, modulating M4 receptor
[4] = Table 4, M1 receptor, calcium mobilization (FLIPR)
[5] = Table 4, M4 receptor, calcium mobilization (FLIPR)
[6] = M1 receptor, calcium mobilization
[7] = M1 receptor, calcium mobilization, read-out: M1 Efficacy
[8] = M4 receptor, calcium mobilization
[9] = M4 receptor, calcium mobilization, read-out: M4 Efficacy

| Structure (SMILES) | Emax (M1 muscarinic receptor; [1]) [%] | M1 Activity (M1 muscarinic receptor; [2]) | Emax (M4 muscarinic receptor; [1]) [%] | M4 Activity (M4 muscarinic receptor; [3]) | M1 Activity (M1 muscarinic receptor; [4]) | M4 Activity (M4 muscarinic receptor; [5]) | M1 Activity (M1 muscarinic receptor; [6]) | Emax (M1 muscarinic receptor; [7]) [%] | M4 Activity (M4 muscarinic receptor; [8]) | Emax (M4 muscarinic receptor; [9]) [%] |
| --- | --- | --- | --- | --- | --- | --- | --- | --- | --- | --- |
| CN(C)C(=O)N1CC2(CCN(C3CCN(c4ccncc4)CC3)CC2)c2cc(F)ccc21 [compound 458] | < 25 | x (activity was measured to be greater than 5.0 μM) | < 25 | x (activity was measured to be greater than 5.0 μM) | – | – | – | – | – | – |
| CCC#CCOC(=O)N1CC[C@H](CN2CCC3(CC2)CN(C(=O)N(C)C)c2ccc(F)cc23)C1 [compound 675] | 25 to 100 | xxx (activity was measured to be less than 2.0 μM) | 25 to 100 | xxx (activity was measured to be less than 2.0 μM) | – | – | – | – | – | – |
| CCOC(=O)N1CCC(N2CCC3(CC2)CN(C(C)=O)c2c(-c4ccccc4C)cccc23)CC1 [compound 911] | < 25 | – | < 25 | – | x (activity was measured to be greater than 5.0 μM) | x (activity was measured to be greater than 5.0 μM) | – | – | – | – |
| CC(=O)N[C@@H]1CC2(CCN(C3CCC3)CC2)c2ccccc21 [compound 682] | < 25 | x (activity was measured to be greater than 5.0 μM) | < 25 | x (activity was measured to be greater than 5.0 μM) | – | – | – | – | – | – |
| CCOC(=O)N1C2CCC1CC(N1CCC3(CC1)CNc1ccc(F)cc13)C2 (stereo not drawn) [compound 310] | – | – | – | – | – | – | xx (activity was measured to be between 0.1 μM and 1.0 μM) | < 65 | x (activity was measured to be greater than 1.0 μM) | < 65 |
| CCOC(=O)N1C2CCC1CC(N1CCC3(CC1)CN(C(C)=O)c1c(C)cccc13)C2 (stereo not drawn) [compound 444] | 25 to 100 | xx (activity was measured to be between 2.0 μM and 5.0 μM) | 25 to 100 | xx (activity was measured to be between 2.0 μM and 5.0 μM) | – | – | – | – | – | – |
| CC(=O)N[C@@H]1CC2(CCN(C3CCOCC3)CC2)c2ccccc21 [compound 437] | < 25 | x (activity was measured to be greater than 5.0 μM) | < 25 | x (activity was measured to be greater than 5.0 μM) | – | – | – | – | – | – |
| CCCCOC(=O)N1C2CCC1CC(N1CCC3(CC1)COc1ccc(F)cc13)C2 (stereo not drawn) [compound 286] | – | – | – | – | – | – | xx (activity was measured to be between 0.1 μM and 1.0 μM) | < 65 | x (activity was measured to be greater than 1.0 μM) | < 65 |
| O=C1CC2(CCN(CC3CCCCC3)C2)c2ccc(F)cc21 (stereo not drawn) [compound 846] | < 25 | – | < 25 | – | xx (activity was measured to be between 2.0 μM and 5.0 μM) | xx (activity was measured to be between 2.0 μM and 5.0 μM) | – | – | – | – |
| Fc1ccc2c(c1)C1(CCN(C3CCC4CCC3C4)CC1)CN2 (stereo not drawn) [compound 111] | – | – | – | – | – | – | xxx (activity was measured to be less than 0.1 μM) | 65 to 85 | xx (activity was measured to be between 0.1 μM and 1.0 μM) | < 65 |
| COCCOC(=O)N1CCCC(N2CCC3(CC2)CN(C(=O)N(C)C)c2ccc(F)cc23)CC1 (stereo not drawn) [compound 954] | 25 to 100 | – | 25 to 100 | – | xxx (activity was measured to be less than 2.0 μM) | xxx (activity was measured to be less than 2.0 μM) | – | – | – | – |
| Cc1cc(C(=O)N2CC3(CCN(C4CC5CCC(C4)N5C(=O)O[C@@H]4CCOC4)CC3)c3cc(F)ccc32)nn1C (stereo partly drawn) [compound 233] | – | – | – | – | – | – | xxx (activity was measured to be less than 0.1 μM) | 65 to 85 | xxx (activity was measured to be less than 0.1 μM) | > 85 |
| CCOC(=O)N1C2CCC1CC(N1CCC3(CC1)CN(C(C)=O)c1ccccc13)C2 (stereo not drawn) [compound 205] | – | – | – | – | – | – | x (activity was measured to be greater than 1.0 μM) | < 65 | x (activity was measured to be greater than 1.0 μM) | < 65 |
| CCOC(=O)N1CCC(N2CCC3(CC[C@H](NC(=O)N(C)C)c4ccccc43)CC2)CC1 [compound 961] | 25 to 100 | – | 25 to 100 | – | xxx (activity was measured to be less than 2.0 μM) | xxx (activity was measured to be less than 2.0 μM) | – | – | – | – |
| c1ccc2c(c1)CCCC21CCN(C2C[C@@H]3CC[C@@H](C2)C3)CC1 (stereo partly drawn) [compound 657] | 25 to 100 | xx (activity was measured to be between 2.0 μM and 5.0 μM) | 25 to 100 | xxx (activity was measured to be less than 2.0 μM) | – | – | – | – | – | – |
| O=C(N[C@H]1CC2(CCN(C3C[C@H]4CC[C@@H]3C4)CC2)c2ccccc21)N1CCCCC1 (stereo partly drawn) [compound 525] | < 25 | x (activity was measured to be greater than 5.0 μM) | 25 to 100 | xxx (activity was measured to be less than 2.0 μM) | – | – | – | – | – | – |
| CCNC(=O)N1CC2(CCN(C3CC4CCC(C3)N4C(=O)OCC)CC2)c2cc(F)ccc21 (stereo not drawn) [compound 255] | – | – | – | – | – | – | x (activity was measured to be greater than 1.0 μM) | < 65 | x (activity was measured to be greater than 1.0 μM) | < 65 |
| CCOC(=O)N1CCC(N2CCC3(CC2)C[C@H](NC(C)=O)c2ccccc23)CC1 [compound 61] | – | – | – | – | – | – | xxx (activity was measured to be less than 0.1 μM) | 65 to 85 | xx (activity was measured to be between 0.1 μM and 1.0 μM) | 65 to 85 |
| Clc1ccc2c(c1)C1(CCN(C3CCCCC3)CC1)CO2 [compound 5] | – | – | – | – | – | – | xxx (activity was measured to be less than 0.1 μM) | 65 to 85 | xxx (activity was measured to be less than 0.1 μM) | > 85 |
| CCOC(=O)N1CCC(N2CCC3(CC2)CN(c2cncnc2)c2ccc(F)cc23)CC1 [compound 855] | 25 to 100 | – | 25 to 100 | – | xxx (activity was measured to be less than 2.0 μM) | xxx (activity was measured to be less than 2.0 μM) | – | – | – | – |
| C#Cc1ccc2c(c1)C1(CCN(C3CCN(C(=O)OCC)CC3)CC1)CN2C(C)=O [compound 563] | > 100 | xxx (activity was measured to be less than 2.0 μM) | 25 to 100 | xxx (activity was measured to be less than 2.0 μM) | – | – | – | – | – | – |
| CCOC(=O)N1CCC(N2CCC3(CC2)CN(C(C)=O)c2ccc(-c4ccccc4C)cc23)CC1 [compound 78] | – | – | – | – | – | – | xxx (activity was measured to be less than 0.1 μM) | 65 to 85 | xx (activity was measured to be between 0.1 μM and 1.0 μM) | < 65 |
| CC(=O)N1CC2(CCN(C3CCN(C(=O)OC4CCC4)CC3)CC2)c2cc(C)ccc21 [compound 151] | – | – | – | – | – | – | xxx (activity was measured to be less than 0.1 μM) | > 85 | xxx (activity was measured to be less than 0.1 μM) | > 85 |
| O=C(N[C@H]1CC2(CCN(C3CCCCC3)CC2)c2ccccc21)N1CCCC1 [compound 842] | < 25 | – | < 25 | – | x (activity was measured to be greater than 5.0 μM) | xxx (activity was measured to be less than 2.0 μM) | – | – | – | – |
| CCC#CCOC(=O)N1CC[C@@H](CN2CCC3(CC2)CN(C(C)=O)c2ccccc23)C1 [compound 481] | 25 to 100 | xxx (activity was measured to be less than 2.0 μM) | 25 to 100 | xxx (activity was measured to be less than 2.0 μM) | – | – | – | – | – | – |
| COC(=O)N1C2CCC1CC(N1CCC3(CC1)COc1ccc(F)cc13)C2 (stereo not drawn) [compound 156] | – | – | – | – | – | – | xxx (activity was measured to be less than 0.1 μM) | 65 to 85 | xxx (activity was measured to be less than 0.1 μM) | > 85 |
| CCOC(=O)N1CCC(N2CCC3(CC2)CN(C(C)=O)c2c(-c4ccc(C(N)=O)cc4)cccc23)CC1 [compound 629] | 25 to 100 | xx (activity was measured to be between 2.0 μM and 5.0 μM) | 25 to 100 | xx (activity was measured to be between 2.0 μM and 5.0 μM) | – | – | – | – | – | – |
